Measured values taken from US20250313530A1, “SMALL MOLECULE INHIBITORS OF INTERLEUKIN-4 AND USES THEREOF” (Trustees of Boston University, priority 2024, published 2025).
Values joined by “and” are separate entries in the source; they are usually repeats but may differ in a detail not shown here. Equal values may be shown once. Read-outs that look alike come from different tables or passages of the source.

Molecular target: T1, IL-4 (Homo sapiens, UniProt P05112)
T1 construct: purchased Acros Biosystems IL4-H4218; host or cells: HEK-293
T1 sequence (P05112 25-153): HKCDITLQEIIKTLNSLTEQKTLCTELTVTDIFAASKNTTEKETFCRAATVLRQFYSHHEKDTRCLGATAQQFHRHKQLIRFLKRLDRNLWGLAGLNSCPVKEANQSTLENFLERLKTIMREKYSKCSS
Test: HEK-Blue IL-4/IL-13 reporter assay, IL-4 inhibition
Format: cell-based
Details: for inhibition at 10 µM: HEK-Blue; for inhibition at 10 µM / % Inhibition: IL-4, HEK Blue IL-4/IL-13 reporter assay, 10 μM; for EC50: HEK Blue IL-4/IL-13 reporter assay, read-out: EC50
Protocol: HEK-Blue IL-4/IL-13 Inhibition assay. HEK-Blue IL-4/IL-13 reporter cell lines were purchased from Invivogen and cultured in DMEM with 10% Heat Inactivated Fetal Bovine Serum (FBS), 100 U/ml-100 μg/ml Pen-Strep, 10 μg/ml blasticidin, 100 μg/ml Normocin and 100 μg/ml Zeocin. Cells were tested for secreted embryonic alkaline phosphatase (SEAP) production induced by IL-4 alone prior to small molecule screening.
22.5 μl of small molecule in DMEM 4% DMSO was added to 22.5 μl of 1 ng/ml IL-4 in DMEM in a non-binding 96-well reaction plate for 30 minutes at room temperature. The reaction plate was further incubated for 30-60 min at 37° C. HEK-Blue IL-4/IL-13 reporter cell line was used between passages 11-17. […] Measurements were done in triplicate. The plate was incubated for ˜22-24 hours at 37° C./5% CO2. Quanti-Blue dye was prepared as per the manufacturer's recommendation and 160 μl was dispensed in each well of a 96-well plate (avoid edges to avoid evaporation), 40 μl of cell supernatant was added to the same plate and incubated for 3 hours at 37° C./5% CO2. Optical density was then measured at 650 nm using Molecular Devices SpectraMax M5 Microplate reader. Data was analyzed and plotted using GraphPad Prism 9.2.0.

`N#Cc1c(-c2ccc(O)c(O)c2)cc(C2CC2)nc1N` [2A/55, 2-amino-6-cyclopropyl-4-(3,4-dihydroxyphenyl) nicotinonitrile] was tested, and the inhibition at 10 µM (read-out: % Inhibition) was 2.47 ± 14.2%.

In the case of `N#Cc1c(-c2ccc(O)c(O)c2)cc(C2CCC2)nc1N` [3A/56, 2-amino-6-cyclobutyl-4-(3,4-dihydroxyphenyl) nicotinonitrile], the inhibition at 10 µM (read-out: % Inhibition) is reported as 28.5 ± 12.1%.

In the case of `N#Cc1c(-c2ccc(O)c(O)c2)cc(-c2cccc(F)c2)nc1N` [Compound 1, 2-amino-4-(3A-dihydroxyphenyl)-6-(3-fluorophenyl)nicotinonitrile], the “% Inhibition” value is reported as “No inhibition”.

With `N#Cc1c(-c2ccc(O)c(O)c2)cc(-c2ccccc2F)nc1N` [Compound 2, 2-amino-4-(3A-dihydroxyphenyl)-6-(2-fluorophenyl)nicotinonitrile] the “% Inhibition” value was 40.0 ± 5.87%.

With `N#CC1C(=N)N=C(c2ccc(Br)cc2)C=C1c1ccc(O)c(O)c1` (stereo not drawn) [Compound 3, 6-(4-bromophenyl)-4-(3,4-dihydroxyphenyl)-2-imino-2,3-dihydropyridine-3-carbonitrile] the “% Inhibition” value was 63.3 ± 2.54% and 93.3 ± 2.54% and the EC50 (dose response, IL-4 inhibition) was 1300 ± 390 nM.

In the case of `N#Cc1c(-c2ccc(O)c(O)c2)cc(-c2ccc(O)cc2)[nH]c1=N` [Compound 4, 4-(3,4-dihydroxyphenyl)-6-(4-hydroxyphenyl)-2-imino-1,2-dihydropyridine-3-carbonitrile], the “% Inhibition” value is reported as 81.2 ± 18.9%, the inhibition at 10 µM is reported as over 80% and the EC50 (dose response, IL-4 inhibition) is reported as 1140 ± 380 nM.

In the case of `Cc1ccc(-c2cc(-c3ccc(O)c(O)c3)c(C#N)c(=N)[nH]2)cc1` [Compound 5, 4-(3,4-dihydroxyphenyl)-2-imino-6-(p-tolyl)-1,2-dihydropyridine-3-carbonitrile], the “% Inhibition” value is reported as 62.7 ± 4.30% and 82.7 ± 4.30%, the inhibition at 10 µM is reported as over 80% and the EC50 (dose response, IL-4 inhibition) is reported as 1290 ± 470 nM.

In the case of `COc1ccc(C2=NC(=N)C(C#N)C(c3ccc(O)c(O)c3)=C2)cc1` (stereo not drawn) [Compound 6, 4-(3,4-dihydroxyphenyl)-2-imino-6-(4-methoxyphenyl)-2,3-dihydropyridine-3-carbonitrile], the “% Inhibition” value is reported as 51.7 ± 5.05% and the EC50 (dose response, IL-4 inhibition) is reported as 3020 ± 610 nM.

For `N#Cc1c(-c2ccc(O)c(O)c2)cc(-c2cccnc2)[nH]c1=N` [Compound 7, 4-(3,4-dihydroxyphenyl)-6-imino-1,6-dihydro-[2,3′-bipyridine]-5-carbonitrile], the “% Inhibition” value was 84.3 ± 1.11%, the inhibition at 10 µM (read-out: % Inhibition) was 94.3% and the EC50 (dose response, IL-4 inhibition) was 2020 ± 970 nM.

For `N#Cc1c(-c2ccc(O)c(O)c2)cc(-c2ccco2)nc1N` [Compound 8, 2-amino-4-(3,4-dihydroxyphenyl)-6-(furan-2-yl)nicotinonitrile], the “% Inhibition” value was “No inhibition”.

Compound `N#CC1C(=N)N=C(c2cnccn2)C=C1c1ccc(O)c(O)c1` (stereo not drawn) [Compound 9, 4-(3,4-dihydroxyphenyl)-2-imino-6-(pyrazin-2-yl)-2,3-dihydropyridine-3-carbonitrile] has an inhibition at 10 µM (read-out: % Inhibition) of 64.2 ± 13.4%.

Compound `N#Cc1c(-c2ccc(O)c(O)c2)cc(-c2ccc(-c3ccccc3)cc2)[nH]c1=N` [Compound 10, 6-([1,1′-biphenyl]-4-yl)-4-(3,4-dihydroxyphenyl)-2-imino-1,2-dihydropyridine-3-carbonitrile] has an inhibition at 10 µM (read-out: % Inhibition) of 4.73 ± 4.58%.

With `N#Cc1c(-c2ccc(O)c(O)c2)cc(-c2ccc3ccccc3c2)[nH]c1=N` [Compound 11, 4-(3,4-dihydroxyphenyl)-2-imino-6-(naphthalen-2-yl)-1,2-dihydropyridine-3-carbonitrile] the inhibition at 10 µM was 54.7 ± 8.42%.

For `N#Cc1c(-c2ccc(O)c(O)c2)cc(C2CCCCC2)nc1N` [Compound 12, 2-amino-6-cyclohexyl-4-(3,4-dihydroxyphenyl)nicotinonitrile], the “% Inhibition” value was 48.4 ± 5.80% and the inhibition at 10 µM was 49.4%.

With `Cc1cc(-c2ccc(O)c(O)c2)c(C#N)c(N)n1` [Compound 13, 2-amino-4-(3,4-dihydroxyphenyl)-6-methylnicotinonitrile] the inhibition at 10 µM (read-out: % Inhibition) was 70.2%.

For `N#Cc1c(-c2ccc(O)c(O)c2)cc(-c2ccc(-n3ccnc3)cc2)nc1N` [Compound 16, 6-(4-(1H-imidazol-1-yl)phenyl)-2-amino-4-(3,4-dihydroxyphenyl)nicotinonitrile], the “% Inhibition” value was “No inhibition”.

Work on `CN(C)c1ccc(-c2cc(-c3ccc(O)c(O)c3)c(C#N)c(N)n2)cc1` [Compound 17, 2-amino-4-(3,4-dihydroxyphenyl)-6-(4-(dimethylamino)phenyl)nicotinonitrile] yielded an inhibition at 10 µM (read-out: % Inhibition) of 22.9 ± 1.48%.

In the case of `Cc1ccc(N2CCCCC2)cc1` [Compound 18], the inhibition at 10 µM (read-out: % Inhibition) is reported as 88.2 ± 13.9%.

`N#Cc1c(-c2ccc(O)c(O)c2)cc(-c2ccc(F)cc2)[nH]c1=O` [Compound 19, 4-(3,4-dihydroxyphenyl)-6-(4-fluorophenyl)-2-oxo-1,2-dihydropyridine-3-carbonitrile] showed an inhibition at 10 µM (read-out: % Inhibition) of 71.2 ± 5.6%.

With `Cc1c(-c2ccc(F)cc2)[nH]c(=N)c(C#N)c1-c1ccc(O)c(O)c1` [Compound 20, 4-(3,4-dihydroxyphenyl)-6-(4-fluorophenyl)-2-imino-5-methyl-1,2-dihydropyridine-3-carbonitrile] the inhibition at 10 µM (read-out: % Inhibition) was 97.7%, the “potency compared with Nico-52 (in words)” value (dose response, IL-4 inhibition) was “less potency than Nico-52” and the EC50 (dose response, IL-4 inhibition) was 2690 ± 570 nM.

Compound `N#CC1C(=O)N=C(c2ccc(-c3ccccc3)cc2)C=C1c1ccc(O)c(O)c1` (stereo not drawn) [Compound 31, 6-([1,1′-biphenyl]-4-yl)-4-(3,4-dihydroxyphenyl)-2-oxo-2,3-dihydropyridine-3-carbonitrile] has an inhibition at 10 µM (read-out: % Inhibition) of 68.7 ± 9.84%.

In the case of `N#CC1C(=O)N=C(c2ccc(O)cc2)C=C1c1ccc(O)c(O)c1` (stereo not drawn) [Compound 32, 4-(3,4-dihydroxyphenyl)-6-(4-hydroxyphenyl)-2-oxo-2,3-dihydropyridine-3-carbonitrile], the inhibition at 10 µM is reported as 94.1%.

In the case of `N#Cc1c(-c2ccc(O)c(C(=O)O)c2)cc(-c2ccc(N)cc2)nc1N` [Compound 33, 5-(2-amino-6-(4-aminophenyl)-3-cyanopyridin-4-yl)-2-hydroxybenzoic acid], the inhibition at 10 µM is reported as 6.63%.

Compound `N#Cc1c(-c2ccc(Cl)c(Cl)c2)cc(-c2ccc(F)cc2)[nH]c1=O` [Compound 34, 4-(3,4-dichlorophenyl)-6-(4-fluorophenyl)-2-oxo-1,2-dihydropyridine-3-carbonitrile] has an inhibition at 10 µM of 44.2 ± 11.1%.

In the case of `N#Cc1c(-c2ccccc2)cc(-c2ccc(F)cc2)[nH]c1=O` [Compound 35, 6-(4-fluorophenyl)-2-oxo-4-phenyl-1,2-dihydropyridine-3-carbonitrile], the inhibition at 10 µM (read-out: % Inhibition) is reported as 27.6 ± 25.1%.

`Cc1ccc(-c2cc(-c3ccc(F)cc3)[nH]c(=O)c2C#N)o1` [Compound 37, 6(4-fluorophenyl)-4-(5-methylfuran-2-yl)-2-oxo-1,2-dihydropyridine-3-carbonitrile] gave an inhibition at 10 µM (read-out: % Inhibition) of 0.48 ± 17.1%.

With `N#Cc1c(-c2ccccc2O)cc(-c2ccc(F)cc2)nc1O` [Compound 39, 6-(4-fluorophenyl)-2-hydroxy-4-(2-hydroxyphenyl)nicotinonitrile] the inhibition at 10 µM was 100% and the EC50 (dose response, IL-4 inhibition) was 1750 nM.

Compound `N#Cc1c(-c2cccc(O)c2)cc(-c2ccc(F)cc2)[nH]c1=O` [Compound 40, 6-(4-fluorophenyl)-4-(3-hydroxyphenyl)-2-oxo-1,2-dihydropyridine-3-carbonitrile] has an inhibition at 10 µM of 64.3 ± 12.3%.

Work on `N#Cc1c(-c2ccc(O)cc2)cc(-c2ccc(F)cc2)[nH]c1=O` [Compound 41, 6(4-fluorophenyl)-4-(4-hydroxyphenyl)-2-oxo-1,2-dihydropyridine-3-carbonitrile] yielded an inhibition at 10 µM of 60.7 ± 10.3%.

`COc1cc(-c2cc(-c3ccc(F)cc3)[nH]c(=O)c2C#N)ccc1O` [Compound 42, 6(4-fluorophenyl)-4-(4-hydroxy-3-methoxyphenyl)-2-oxo-1,2-dihydropyridine-3-carbonitrile] showed an inhibition at 10 µM of 67.6 ± 4.88%.

`N#Cc1c(-c2ccccc2)cc(-c2ccc(F)cc2)[nH]c1=N` [Compound 43, 6-(4-fluorophenyl)-2-imino-4-phenyl-1,2-dihydropyridine-3-carbonitrile] was tested, and the inhibition at 10 µM (read-out: % Inhibition) was 6.13 ± 9.13%.

`Cc1ccc(-c2cc(-c3ccc(F)cc3)[nH]c(=N)c2C#N)o1` [Compound 44, 6-(4-fluorophenyl)-2-imino-4-(5-methylfuran-2-yl)-1,2-dihydropyridine-3-carbonitrile] was tested, and the inhibition at 10 µM (read-out: % Inhibition) was 33.9 ± 21.4%.

`Cc1ccc(-c2cc(-c3ccc(F)cc3)[nH]c(=N)c2C#N)s1` [Compound 45, 6-(4-fluorophenyl)-2-imino-4-(5-methylthiophen-2-yl)-1,2-dihydropyridine-3-carbonitrile] was tested, and the inhibition at 10 µM (read-out: % Inhibition) was 37.5 ± 19.9%.

For `N#Cc1c(-c2ccccc2O)cc(-c2ccc(F)cc2)nc1N` [Compound 47, 2-amino-6-(4-fluorophenyl)-4-(2-hydroxyphenyl)nicotinonitrile], the inhibition at 10 µM (read-out: % Inhibition) was 98.8 ± 1.54% and the EC50 (dose response, IL-4 inhibition) was 3400 nM and 3450 nM.

For `COc1cc(-c2cc(-c3ccc(F)cc3)[nH]c(=N)c2C#N)ccc1O` [Compound 48, 6-(4-fluorophenyl)-4-(4-hydroxy-3-methoxyphenyl)-2-imino-1,2-dihydropyridine-3-carbonitrile], the inhibition at 10 µM was 100 ± 0.49% and the EC50 (dose response, IL-4 inhibition) was 8400 nM and 6400 nM.

`COc1ccc(-c2cc(-c3ccc(F)cc3)[nH]c(=N)c2C#N)cc1O` [Compound 49, 6-(4-fluorophenyl)-4-(3-hydroxy-4-methoxyphenyl)-2-imino-1,2-dihydropyridine-3-carbonitrile] showed an inhibition at 10 µM of 82.2 ± 7.2% and an EC50 (dose response, IL-4 inhibition) of 4020 ± 1850 nM.
